Data on one compound can be found in patent US20190047983A1, “MODIFIED PROCESS FOR THE PREPARATION OF CERITINIB AND AMORPHOUS FORM OF CERITINIB” (NATCO PHARMA LIMITED, priority 2016, published 2019).

This series in a line: Stability of the amorphous form, confirmed by PXRD, DSC and TGA. Format: physicochemical. The settings on record: solid amorphous form. The text has this: According to the present invention, the obtained amorphous form of Ceritinib is stable up to 180 days. The stability of the amorphous form is confirmed by PXRD, DSC and TGA.
FIG. 2: Powder X-ray diffractogram of an amorphous form of ceritinib of 180 days

Structures are written as SMILES.

As for `Cc1cc(Nc2ncc(Cl)c(Nc3ccccc3S(=O)(=O)C(C)C)n2)c(OC(C)C)cc1C1CCNCC1` [amorphous form of Ceritinib], the “stability towards polymorphic conversion” value is “stable towards polymorphic conversion”. For the same compound, for the setting “confirmed by PXRD, DSC and TGA, storage conditions not given”, the “stability of the amorphous form (time for which it is stable)” value is “up to 180 days”.
